Experimental data published in ChEMBL document CHEMBL5727383, “[1,2,3]triazolo[4,5-D]pyrimidine derivatives” (2019).

Target: Cannabinoid receptor 2 (Homo sapiens, UniProt P34972)
Test: Radioligand Binding Assay: The affinity of the compounds of the invention for cannabinoid receptors was determined using recommended amounts of membrane preparations (PerkinElmer) of human embryonic kidney (HEK) cells expressing the human CNR1 or CNR2 receptors in conjunction with 1.5 or 2.6 nM [3H]-CP-55,940 (Perkin Elmer) as radioligand, respectively. Binding was performed in binding buffer (50 mM Tris, 5 mM MgCl2, 2.5 mM EDTA, and 0.5% (wt/vol) fatty acid free BSA, pH 7.4 for CB1 receptor and 50 mM Tris, 5 mM MgCl2, 2.5 mM EGTA, and 0.1% (wt/vol) fatty acid free BSA, pH 7.4 for CB2 receptor) in a total volume of 0.2 mL for 1 h at 30° C. shaking. The reaction was terminated by rapid filtration through microfiltration plates coated with 0.5% polyethylenimine (UniFilter GF/B filter plate; Packard). Bound radioactivity was analyzed for Ki using nonlinear regression analysis (Activity Base, ID Business Solution, Limited), with the Kd values for [3H]CP55,940 determined from saturation experiments.

Chain of Cannabinoid receptor 2 (P34972 whole entry): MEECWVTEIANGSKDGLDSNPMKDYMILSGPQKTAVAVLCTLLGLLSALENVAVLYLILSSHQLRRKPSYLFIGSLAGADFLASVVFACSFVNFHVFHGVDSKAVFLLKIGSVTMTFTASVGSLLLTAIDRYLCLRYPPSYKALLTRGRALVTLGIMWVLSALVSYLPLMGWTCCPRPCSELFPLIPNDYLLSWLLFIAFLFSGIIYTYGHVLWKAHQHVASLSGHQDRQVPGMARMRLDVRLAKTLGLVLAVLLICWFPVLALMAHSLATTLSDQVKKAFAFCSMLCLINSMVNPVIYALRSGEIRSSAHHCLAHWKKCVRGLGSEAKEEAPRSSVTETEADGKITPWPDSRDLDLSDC

CC(C)(C)c1nc(N2CCC(F)(F)C2)c2nn(Cc3ccc(C4(C(F)(F)F)N=N4)cc3Cl)nc2n1
Ki: 2340 nM
